Reference: patent US6531582B1, “2-O-(9z,12z-octadecadienoyl)-3-O-[α-D-galactopyranosyl-(1″-6′)-O-α-D-galactopyranosyl]glycerol and pharmaceutical composition containing the same” (priority 2000, dated 2003)
Entries after “also recorded” stand apart in the source; their conditions may differ.

Key:
[1] = Effect of the compounds separated from Cibotii rhizoma on arthritis; settings: summary statement
smooth muscle = settings: cited from earlier work
edema of arthritis = test: Inhibitory effect on edema of arthritis (Zymosan-A/Freund's adjuvant induced paw edema); format: in vivo; settings: albino rats; for inhibitory effect on edema: test for edema induction
Method: In order to observe the inhibitory effect on edema of the pharmaceutical composition of the present invention, 6 albino rats weighing 200 g were used per test group to induce edema by injecting the mixture of 0.5 ml of Zymosan-A (20 mg/ml/kg) and 0.5 ml of Freund's adjuvant into ST36 position of left paw and then observed for the progress of edema for 70 days by taking a photograph before and after induction of edema. The water extract and organic solvent fractions of the pharmaceutical composition of the present invention were respectively constituted in the concentration of 0.6 mg/ml and then orally administered for 14 days to albino rats in an amount of 1 ml per kg of body weight once a day to determine the inhibitory effect on edema. As the test sample, the organic solvent fractions of the pharmaceutical composition including ABE, ABB, ABW, CBE, CBB, CBW, LNE, LNB, LNW, CRB, CRW, SSH and SSW were respectively used. As the result of this test, it was observed that edema was started to induce on day 4 and reached the peak point after about 45 days. The period for this test was established as 70 days after edema induction to observe the inhibitory effect on edema of the extracts of the present invention. As the result, the edema size was measured using a precision gauge.
The inihibitory effect on edema of the compound according to the present invention as measured after 70 days have passed are listed in the following Tables 2 and 3 and FIG. 4.

[2] = system: CAM formation induced by synovial cells; test: Angiogenesis of synovial cells in chorioallantoic membrane (CAM) of fertilized egg; format: in vivo; settings: 10 μg/ml on CAM, synovial cells injected, compared to control group
Method: In order to determine the effect of the organic solvent fractions on the angionenesis of synovial cells using the cells separated in Experiment 2, synovial cells were injected into fertilized egg and then incubated in an incubator at 37° C. for 3 days to observe the formation of chorioallantoic membrane (CAM). In the present state, the fractions separated according to the above method were respectively distributed on CAM at the concentration of 10 μg/ml to observe the degree of CAM decrease.

[3] = system: NO formation in RAW 264.7 cell lines; test: NO formation in macrophage cells stimulated by lipid polysaccharide (Greiss reagent); format: cell-based; settings: 10 μg/ml, LPS-stimulated RAW 264.7
Method: FIG. 7 is (a) a bar graph showing the inhibition of NO formation when Raw 264.7 cell lines are treated with the organic solvent fraction of a single drug of the pharmaceutical composition at the concentration of 10 μg/ml for 24 hours an then stimulated with LPS, and (b) a bar graph showing the inhibition of NO formation when the cell lines treated with CBB fraction and LNE fraction as the organic solvent fractions are stimulated with LPS according to the same manner as above (a).
In order to identify whether the extracts obtained according to the present invention can inhibit the synthesis of nitric oxide (NO) as the potent inducer of inflammation in blood due to edema as above, macrophage RAW 264.7 cell lines were distributed in a 96-well microplate at the concentration of 10^3 cells per well and then incubated for 12 hours. Then, lipid polysaccharide was added to the plate at the concentration of 50 ng/well to stimulate the cells for 2 hours. The respective organic solvent fractions were added to the plate to the final concentration of 10 μg/ml followed by addition of 50 μl of Greiss reagent solution, and then allowed to react together at room temperature. Then, the absorbance of the plate was measured at 540 nm of ELISA (enzyme-linked immunosorbent assay) reader. […]

Raw 264.7 cell lines [4] = test: Induction of apoptosis of macrophages; format: cell-based; settings: Raw 264.7, 24 hours, microscopy
Method: (§1) In order to determine whether the compound identified as the effective component of the pharmaceutical composition separated according to the present invention can induce the apoptosis of Raw 264.7 cell lines as macrophage involved in inflammatory reaction and synovial cells, the cells were distributed on 5% DMEM medium supplemented with penicillin/streptomycin in a 6-well culture dish at the concentration of 10^4 cells and then incubated at 37° C. for 24 hours while adding the extractions as above at the concentration of 10 μg/ml to observe the reaction. Apoptosis was examined by taking a photograph of apoptosis-induced cells under a polarizing microscope of 200 magnifications.

synovial cells = test: Induction of apoptosis of synovial cell lines; format: cell-based, human; settings: 24 hours, microscopy
Method: The synovial cells separated from outpatients suffering from rheumatoid arthritis were distributed on 5% DMEM medium supplemented with penicillin/streptomycin in a 6-well culture dish at the concentration of 10^4 cells and then incubated for 24 hours at 37° C. to observe the surviving cells. In order to determine the presence or absence of cells and the proliferating state of cells, apoptosis-induced cells were examined by taking their photographs under a phase-contrast microscope of 200 magnifications.
as §1

Raw 264.7 cell lines [5] = test: Effect on cell cycle of macrophage cells (flow cytometry); format: cell-based; settings: Raw 264.7, LPS-stimulated, 20 μg/ml
Method: (§2) Two kinds of cells were incubated as in Experiment 6 and then washed with PBS (phosphate-buffered saline). LPS was distributed on the respective dishes at the concentration of 50 μg/ml to stimulate the cells. Then, the extract according to the present invention was added over 2 hours so as to make the final concentration of 20 μg/ml. The supernatant was removed, washed with PBS and then treated with trypsin. The cells were harvested, introduced into Eppendorf tube and then centrifuged at 1,000 rpm for 5 minutes to remove the supernatant. The residue was fixed with addition of 1 ml of 100% ethanol. At this time, the mixture of 5 μg/ml propidium iodide and RNAse was separately prepared. The fixed cells were centrifuged to remove the supernatant and then washed once with PBS. Simultaneously, the staining agent as previously prepared above was added to the fixed cells and then warmed in an incubator at 37° C. for 30 minutes. The cells stained with propidium iodide was sealed with foil, stored at 4° C. and then subjected to a flow cytometry analysis using FACscan (Becton Dickinson, Calif.) as the analyzing apparatus.

synovial cell lines = test: Effect on cell cycle of synovial cell lines (flow cytometry); format: cell-based, human; settings: LPS-stimulated, 20 μg/ml
Method: as §2

iNOS = test: Inhibition of iNOS expression at the level of transcription through RT-PCR; format: cell-based, human; settings: FIG. 12a, lanes 1-8; 50 μg/ml, LPS-stimulated
Method: (§3) In order to identify the ingredient having an inhibitory activity against COX-II and inducible nitric oxide synthetase (iNOS) as the causal factors of rheumatoid arthritis in the extract used as the effective component of the pharmaceutical composition according to the present invention as in Experiment 7 above, the cells were distributed in T75 flask at the concentration of 10^5 cells, incubated for 7 days and then stimulated for 2 hours by introducing LPS in the flask at the concentration of 50 ng/ml. Then, the extract of the present invention was added so as to make the final concentration of 50 μg/ml. The cells were harvested into a 1.5 ml Eppendorf tube and centrifuged with 15,000 rpm at 4° C. for 15 minutes to remove the supernatant. 200 μl of RNAzol solution was added to the residue followed by addition of 50 μl of chloroform. The cells were lysed by careful pippeting, and then centrifuged with 15,000 rpm at 4° C. for 15 minutes to recover a total RNA, which was then precipitated at 4° C. for 15 minutes by adding the same volume of isopropanol, washed once with 75% ethanol and then dried. The cell lysate was dissolved by adding 20 μl of RNase free D2O and then warming the mixture at 60° C. for 30 minutes. […]

COX-II = test: Inhibition of COX-II expression at the level of transcription through RT-PCR; format: cell-based, human
Method: as §3

[6] = system: cartilage and bone of arthritic joint; test: Joint rupture in edema-inhibited albino rats by X-ray analysis; format: in vivo; settings: edema-induced albino rats, oral, about 70 days
Method: FIG. 13 is X-ray photograph to show the 70-days inhibitory effect on edema as one of chronic and degenerative osteopathological symptoms of arthritis by treating the induced edema with respective fractions obtained as the organic solvent fractions of the pharmaceutical composition in an amount of 75 μg/ml for 2 weeks via oral route.
The respective water extract and organic solvent fractions were orally administered for 14 days at the concentration of 75 μg/ml to investigate their inhibitory effect on edema as in Experiment 1. The test albino rats were anesthetized to take X-ray photograph.

[7] = system: nogo-A expressed U-373 MG glioblastoma cell line; test: Therapeutic effect on vertebral neuroparalysis (neurite regeneration in nogo-A expressing cells); format: cell-based; settings: nogo-A expressed U-373 cell lines, phase-contrast microscopy
Source text: Simultaneously, it was also observed whether neurites can be regenerated by treatment with neuronal growth factor (NGF) or whether the fractions of the present invention can provide the same effect, by taking a photograph with a phase-contrast microscope of 200 magnifications.

| Molecule | pharmacological effect on arthritis [1] | activity for relaxing smooth muscle (smooth muscle) | inhibitory effect on edema (edema of arthritis) | edema size, Before treatment (edema of arthritis; Table 3 (unit not given), oral, baseline before treatment, in mm) | edema size, After treatment (edema of arthritis; Table 3 (unit not given), oral, measured after 70 days, in mm) | inhibition of induction of CAM formation [2] | inhibition of NO formation [3] | induction of apoptosis (Raw 264.7 cell lines [4]) | induction of apoptosis (synovial cells) | effect on cell cycle (Raw 264.7 cell lines [5]) | effect on cell cycle (synovial cell lines) | effect on iNOS expression (RT-PCR, band near 278 bp) (iNOS) | effect on COX-II expression (RT-PCR) (COX-II; FIG. 12a, lanes 1-8, 50 μg/ml, LPS-stimulated) | effect on COX-II expression (RT-PCR) (COX-II; FIG. 12c, respective fractions) | osteogenesis (X-ray) [6] | rupture of cartilage in arthritic portion (X-ray) [6] | regeneration of neurites [7] |
| --- | --- | --- | --- | --- | --- | --- | --- | --- | --- | --- | --- | --- | --- | --- | --- | --- | --- |
| Cc1c(O)c2c(c(C)c1CCO)C(=O)C(C)(C)C2 [CBB-11, onitin] | moderate pharmacological effect | activity for relaxing smooth muscle |  |  |  |  |  |  |  |  |  |  |  |  |  |  |  |
| CC[C@H](CC[C@@H](C)[C@H]1CC[C@H]2[C@@H]3CC=C4C[C@@H](O[C@@H]5O[C@H](CO)[C@@H](O)[C@H](O)[C@H]5O)CC[C@]4(C)[C@H]3CC[C@]12C)C(C)C [CBB-12, daucosterol] |  |  | potent inhibitory effect on edema |  |  |  |  |  |  |  |  |  |  |  |  |  |  |
| 2-O-(9z,12z-octadecadienyl)-3-O-[α-galactopyranosyl-(1″-6′)-O-α-D-galactopyranosyl]glycerol [CBB-13] | most excellent pharmacological effect |  | potent inhibitory effect on edema; also recorded: most significant | 14.4 ± 2 | 2.5 ± 1 | more strongly inhibited the induction of CAM formation | stronger inhibitory effect on NO formation | more strongly inducing the apoptosis | more strongly inducing the apoptosis | induced the apoptosis | pattern of G0/G1 arrest | have an effect on the protein expression | inhibitory effect at the level of transcription | strongly inhibit the protein expression | effect of stimulating the osteogenesis | inhibits the rupture of cartilage in arthritic portion | neurites were lengthened |
